B1: IRF3: interferon Regulatory Factor 3, over-expressed from lentivector (protein, UniProt Q14653 1-427, looked up)
Interferon regulatory factor 3: MGTPKPRILPWLVSQLDLGQLEGVAWVNKSRTRFRIPWKHGLRQDAQQEDFGIFQAWAEATGAYVPGRDKPDLPTWKRNFRSALNRKEGLRLAEDRSKDPHDPHKIYEFVNSGVGDFSQPDTSPDTNGGGSTSDTQEDILDELLGNMVLAPLPDPGPPSLAVAPEPCPQPLRSPSLDNPTPFPNLGPSENPLKRLLVPGEEWEFEVTAFYRGRQVFQQTISCPEGLRLVGSEVGDRTLPGWPVTLPDPGMSLTDRGVMSYVRHVLSCLGGGLALWRAGQWLWAQRLGHCHTYWAVSEELLPNSGHGPDGEVPKDKEGGVFDLGPFIVDLITFTEGSGRSPRYALWFCVGESWPQDQPWTKRLVMVKVVPTCLRALVEMARVGGASSLENTVDLHISNSHPLSLTSDQYKAYLQDLVEGMDFQGPGES

How the values were obtained:
cGAS [1] = experiment: cGAS localization by confocal microscopy in CD4+ T cells; format: cell-based, human; settings: activated CD4+ T cells overexpressing IRF3 or RELA K5R, FIG. 5D, 5E
Description: 4 to 5 days following transduction, 500,000 cells were plated on 0.1% poly-L lysine in water (Sigma #8920) coated coverslips and left for 30 minutes to attach. Cells were fixed in PBS 4% paraformaldehyde for 20 minutes at room temperature (RT). Coverslips were washed twice in PBS and quenched with 500 μl of freshly prepared PBS Glycine (375 mg Glycine in 50 mL of PBS) for 10 minutes at room temperature. […] Coverslips were incubated with primary antibody against cGAS (clone D1 D3G) or isotype control (clone DA1E) at a concentration of 0.085 μg/ml in PBS 0.2% BSA 0.05% saponin and left overnight at 4° C. in a moist chamber. Coverslips were washed 5 times with PBS 0.2% BSA 0.05% saponin and incubated in secondary antibody goat anti-Rabbit IgG at 1:400 (Invitrogen #A21246) for 45 minutes at RT. Coverslips were washed 5 times with PBS 0.2% BSA 0.05% saponin, rinsed in water and mounted on a glass slide using 10 μl fluoromount-G with DAPI (Invitrogen #00-4959-520). Glass slides were allowed to dry in a 37° C. chamber for 30 minutes and stored at 4° C. Images were acquired on a Leica Dml8 inverted microscope equipped with an SP8 confocal unit using a 40× (1.3 NA) oil objective. Image analysis was performed using Fiji software^77. […] Average cGAS and GFP intensities were measured in the whole cell, the nuclei and the cytosol (defined by the whole cell excluding the nuclear region).

cGAS [2] = experiment: cGAMP quantification by ELISA in CD4+ T cells; format: cell-based, human; settings: CD4+ T cells expressing RELA K5R or IRF3, FIG. 5B
Description: For cGAS stimulation, 2 μg of control GFP plasmid DNA (provided in the kit) was nucelofected in 2 million T cells 72 hours post TCR stimulation (Lonza #VPA-1002) using the programme T020 (Lonza #Nucleofector 2b). Cells were harvested at 4 hours and 24 hours after nucleofection for analysis.
Cell pellets were stored at −80° C. until extraction. Frozen pellets were fixed in 80% cold methanol and subjected to 5 freeze-thaw cycles in liquid nitrogen. Samples were then centrifuged at 16,000 g for 20 minutes at 4° C. The supernatants were further subjected to drying in Savant DNA Speed Vac DNA 110 at 65° C. for 2 hours. The pellets were resuspended in 100 μl RNase- and DNase-free water and cGAMP was quantified by ELISA as per manufacturers protocol (Interchim #501700). cGAMP quantity was normalized to cell numbers and represented as pg/million cells.

Molecule | cGAS localization (predominantly nuclear) (cGAS [1]) | cellular cGAMP (cGAS [2])
RELA K5R: RELA mutant converting five lysine residues (K122, K123, K310, K314, K315) to arginine, expressed from lentivector | remained unchanged | no significant increase
B1 | remained unchanged | no significant increase

— US20250213614A1, “Modified RELA Protein for Inducing Interferon Expression and Engineered Immune Cells with Improved Interferon Expression” (Institut Curie, priority 2022, published 2025)
